Measured values reported in patent US5686102A, “Pharmacological composition for topical administration” (Lancaster Group AG, priority 1992, dated 1997).
Read-outs that look alike come from different tables or passages of the source.

How the values were obtained:
[1] = Critical solubility temperature (CST) in n-hexane
From the text: FIG. 1 is a diagram of the critical solubility temperatures (CST) of perfluorocarbon mixtures in n-hexane using perfluorodecalin as a starting point
FIG. 2 is a diagram of the critical solubility temperatures of perfluorocarbon mixtures in n-hexane using F-octylbromide as a starting point.

[2] = Vapour pressure of fluorocarbons at 37° C.; assay type: physicochemical
[3] = O2 solubility of fluorocarbons; assay type: physicochemical
[4] = Penetration into skin and residence time/release of labelled encapsulated fluorocarbons, animal experiments; assay type: in vivo
From the text: By means of separate investigations, it was possible to determine the dependence of the penetration rates and the depth of penetration on the particle size of the aggregates experimentally in animal experiments using labelled encapsulated fluorocarbons. […] The choice of fluorocarbons or mixtures thereof according to their lipid solubility (represented by their critical solubility temperature CST in n-hexane) permits, as a further important criterion, the control of the residence time in the tissue. […] With the aid of fluorocarbon mixtures, in this way systems having desired CST values, i.e. lipid and membrane solubilities, with respect to the intended use can be prepared in a controlled manner.

[5] = critical solubility temperature in n-hexane

FC(F)(F)C(F)(F)C(F)(F)C(F)(F)C=CC(F)(F)C(F)(F)C(F)(F)C(F)(F)F [Bis-F(butyl)ethene, bis-F(butyl)ethene]
CST [1, 5]: 22.5 °C

FC1(F)OC(F)(F)C(F)(F)N(C(F)(F)C2(F)C(F)(F)C(F)(F)C(F)(F)C(F)(F)C2(F)F)C1(F)F [F-cyclohexylmethylmorpholine]
CST [1, 5]: 38.5 °C | Vapour Pressure [2]: 4 mm Hg | O2 solubility [3]: 42 ml of O2 /100 ml of Fc

FC(F)(F)C(F)(F)C(F)(F)C(F)(F)C(F)(F)C(F)(F)OC(F)(F)C(F)(F)C(F)(F)C(F)(F)C(F)(F)C(F)(F)F [F-dihexyl ether]
CST [1, 5]: 59 °C

FC(F)(F)C(F)(F)C(F)(F)C(F)(F)C(F)(F)C(F)(F)F [F-hexane, perfluorohexane]
release from the tissue ([4]; in vivo): released correspondingly more rapidly from the tissue

FC(F)(F)C1(F)C(F)(F)C(F)(F)C(F)(F)C(F)(F)C1(F)F [F-methylcyclohexane, perfluoromethylcyclohexane]
CST [1, 5]: 8.2 °C

FC(F)(F)C(F)(F)C(F)(F)C(F)(F)N(C(F)(F)C(F)(F)C(F)(F)C(F)(F)F)C(F)(F)C(F)(F)C(F)(F)C(F)(F)F [F-tributylamine, perfluorotributylamine]
CST [1, 5]: 59 °C | residence time in the tissue ([4]; in words, related to CST / lipid solubility): relatively large residence time

FC(F)(F)C(F)(F)C(F)(F)N(C(F)(F)C(F)(F)C(F)(F)F)C(F)(F)C(F)(F)C(F)(F)F [F-tripropylamine]
CST [1]: 43 °C

FC(F)(F)C(F)(F)C(F)(F)C(F)(F)C1(F)OC(F)(F)C(F)(F)C1(F)F (centres unmarked) [Perfluorobutyltetrahydrofuran, perfluorobutyltetrahydrofuran]
CST [1, 5]: 29 °C | release from the tissue ([4]; in words, compared with perfluorotributylamine): released correspondingly more rapidly from the tissue | Vapour Pressure [2]: 51 mm Hg | O2 solubility [3]: 52 ml of O2 /100 ml of Fc

FC1(F)C(F)(F)C(F)(F)C2(F)C(F)(F)C(F)(F)C(F)(F)C(F)(F)C2(F)C1(F)F (centres unmarked) [Perfluorodecalin, perfluorodecalin]
CST [1]: 22 °C | release from the tissue ([4]; in vivo): released correspondingly more rapidly from the tissue

FC(F)(F)C(F)(F)C(F)(F)C(F)(F)C(F)(F)C(F)(F)C(F)(F)C(F)(F)Br [Perfluorooctyl bromide, perfluorooctyl bromide]
CST [1]: -24.5 °C
